In US20110212960A1, “NEW COMPOUNDS FOR THE TREATMENT OF CNS DISORDER” (BOEHRINGER INGELHEIM INTERNATIONAL GMBH, priority 2009, published 2011):
Where two headings read alike, the source gives them in different places.

How the values were obtained:
[1] = molecular target: T1, human PDE9A2 (Homo sapiens, UniProt O76083); test: PDE9A2 enzymatic activity assay (scintillation proximity assay); format: biochemical; details: for inhibition at 10 µM: read-out: % inhibition of PDE9A2
T1 construct: made in house; host or cells: Sf9 insect cells (infected; crude lysate used as enzyme source)
Procedure: The PDE9A2 enzymatic activity assay was run as scintillation proximity assay (SPA), in general according to the protocol of the manufacturer (Amersham Biosciences, product number: TRKQ 7100).
As enzyme source, lysate (PBS with 1% Triton X-100 supplemented with protease inhibitors, cell debris removed by centrifugation at 13.000 rpm for 30 min) of SF 9 cell expressing the human PDE9A2 was used. The total protein amount included in the assay varied upon infection and production efficacy of the SF9 cells and lay in the range of 0.1-100 ng.
In general, the assay conditions were as follows: • total assay volume: 40 microliter • protein amount: 0.1-50 ng • substrate concentration (cGMP): 20 nanomolar; ˜1 mCi/l • incubation time: 60 min at room temperature • final DMSO concentration: 0.2-1%
The assays were run in 384-well format. The test reagents as well as the enzyme and the substrate were diluted in assay buffer. The assay buffer contained 50 mM Tris, 8.3 mM MgCl2, 1.7 mM EGTA, 0.1% BSA, 0.05% Tween 20; the pH of assay buffer was adjusted to 7.5. The reaction was stopped by applying a PDE9 specific inhibitor (e.g. compounds according to WO04099210 or WO04099211) in excess.
The activity of the positive control (minus the negative control=background) is set to 100% and activity in the presence of test compound is expressed relative to these 100%.

[2] = molecular target: human PDE9A (Homo sapiens, UniProt O76083); details: concentrations of up to 100 micromolar; cited from earlier work
[3] = specific IC50 value lies within the given range, read-out: IC50 within range [nanomolar (nM)]

T1 sequence (O76083 1-533 isoform O76083-2): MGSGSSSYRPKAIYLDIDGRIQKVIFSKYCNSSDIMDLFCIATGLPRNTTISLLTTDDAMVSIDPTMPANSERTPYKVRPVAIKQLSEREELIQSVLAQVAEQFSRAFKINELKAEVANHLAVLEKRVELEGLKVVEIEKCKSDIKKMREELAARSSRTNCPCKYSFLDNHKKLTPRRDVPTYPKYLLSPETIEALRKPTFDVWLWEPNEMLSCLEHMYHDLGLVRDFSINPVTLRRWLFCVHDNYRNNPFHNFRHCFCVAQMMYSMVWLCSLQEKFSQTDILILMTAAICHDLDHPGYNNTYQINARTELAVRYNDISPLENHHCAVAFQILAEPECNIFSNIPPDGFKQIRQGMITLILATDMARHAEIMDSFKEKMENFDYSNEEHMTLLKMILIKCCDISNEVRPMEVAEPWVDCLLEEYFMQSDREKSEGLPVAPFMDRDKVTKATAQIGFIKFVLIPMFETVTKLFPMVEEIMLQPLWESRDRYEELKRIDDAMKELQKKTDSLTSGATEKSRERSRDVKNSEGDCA
Chain of human PDE9A (O76083 whole entry): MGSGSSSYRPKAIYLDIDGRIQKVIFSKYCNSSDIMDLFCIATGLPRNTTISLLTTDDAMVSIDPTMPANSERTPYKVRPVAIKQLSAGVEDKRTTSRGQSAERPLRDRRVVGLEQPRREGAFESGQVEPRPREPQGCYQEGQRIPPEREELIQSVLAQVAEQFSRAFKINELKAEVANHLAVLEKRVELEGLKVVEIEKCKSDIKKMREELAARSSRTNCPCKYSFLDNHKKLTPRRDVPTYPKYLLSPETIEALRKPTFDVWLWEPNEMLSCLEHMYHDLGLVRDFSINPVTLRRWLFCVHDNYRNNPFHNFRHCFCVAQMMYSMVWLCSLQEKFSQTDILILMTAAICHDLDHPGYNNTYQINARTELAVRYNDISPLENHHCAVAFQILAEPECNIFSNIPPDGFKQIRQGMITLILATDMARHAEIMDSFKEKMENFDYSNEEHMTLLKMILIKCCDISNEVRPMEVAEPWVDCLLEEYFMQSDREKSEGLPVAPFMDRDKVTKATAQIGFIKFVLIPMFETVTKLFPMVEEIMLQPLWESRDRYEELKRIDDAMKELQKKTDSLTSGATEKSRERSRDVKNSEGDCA

Row | inhibition at 10 µM ([1]; at 10 micromolar concentration) [%] | IC50 [1, 3] [nM] | SMILES | also measured
1 | 90 | 1 to 200 | Cc1ccncc1-n1ncc2c(=O)[nH]c([C@H]3C[C@@H]3C)nc21 (racemic) [Example 36] | –
2 | 91 | 1 to 200 | Cc1noc(C2CCC2c2nc3c(cnn3C3CCC(F)(F)CC3)c(=O)[nH]2)n1 (racemic) [Example 32] | –
3 | 92 | 201 to 5000 | O=C([C@H]1C[C@@H]1c1nc2c(cnn2C2CCC(F)(F)CC2)c(=O)[nH]1)N1CCCCC1 (racemic) [Example 23] | –
4 | 50 | 201 to 5000 | Cc1ccncc1-n1ncc2c(=O)[nH]c(C3CC(C)(C)C3)nc21 [Example 35] | –
5 | 99 | 1 to 200 | O=C([C@H]1CC[C@@H]1c1nc2c(cnn2C2CCC(F)(F)CC2)c(=O)[nH]1)N1CCOCC1 (racemic) [Example 1] | –
6 | – | 201 to 5000 | CCC(CC)n1ncc2c(=O)[nH]c(C3CCC(C(=O)Nc4cc(OC)cc(OC)c4)CC3)nc21 (mixture of isomers) [Example 44] | –
7 | – | 1 to 200 | COC(=O)C1CCCC(c2nc3c(cnn3-c3ccccc3C)c(=O)[nH]2)C1 (mixture of isomers) [Example 38] | –
8 | – | 201 to 5000 | Cc1ccccc1-n1ncc2c(=O)[nH]c(C3CCCC(O)C3)nc21 (mixture of isomers) [Example 40] | –
9 | 94 | 1 to 200 | O=C([C@H]1CC[C@@H]1c1nc2c(cnn2C2CCC(F)(F)CC2)c(=O)[nH]1)N1CCC(F)CC1 (racemic) [Example 11] | –
10 | 97 | 1 to 200 | CC1(C)CCN(C(=O)[C@H]2CC[C@@H]2c2nc3c(cnn3C3CCC(F)(F)CC3)c(=O)[nH]2)CC1 (racemic) [Example 10] | –
11 | 71 | 201 to 5000 | O=C([C@H]1CCCC[C@@H]1c1nc2c(cnn2C2CCC(F)(F)CC2)c(=O)[nH]1)N1CCOCC1 (racemic) [Example 20] | –
12 | 101 | 1 to 200 | CC1CCN(C(=O)[C@H]2CC[C@@H]2c2nc3c(cnn3C3CCC(F)(F)CC3)c(=O)[nH]2)CC1 (racemic) [Example 15] | –
13 | – | – | COc1ccc(C2CNC(=O)C2)cc1OC1CCCC1 (centres unmarked) [rolipram] | inhibition on the isolated enzyme [2]: no inhibition
14 | 99 | 1 to 200 | O=C(C1CCCC1c1nc2c(cnn2C2CCCC2)c(=O)[nH]1)N1CCCCC1 (racemic) [Example 26] | –
15 | 66 | 1 to 200 | O=C([C@H]1CCCC[C@@H]1c1nc2c(cnn2C2CCC(F)(F)CC2)c(=O)[nH]1)N1CCCC1 (racemic) [Example 21] | –
16 | – | 201 to 5000 | CCOC(=O)[C@H]1C[C@H]1c1nc2c(cnn2C(CC)CC)c(=O)[nH]1 (stereo in doubt) [Example 43] | –
17 | 98 | 1 to 200 | CCOC(=O)[C@H]1CC[C@@H]1c1nc2c(cnn2C2CCCC2)c(=O)[nH]1 (racemic) [Example 27] | –
18 | 91 | 1 to 200 | O=C(O)[C@H]1CC[C@@H]1c1nc2c(cnn2C2CCC(F)(F)CC2)c(=O)[nH]1 (racemic) [Example 46] | –
19 | 83 | 201 to 5000 | O=c1[nH]c([C@@H]2CC[C@H]2CO)nc2c1cnn2C1CCC(F)(F)CC1 (racemic) [Example 33] | –
20 | 90 | 1 to 200 | C#CCNC(=O)C1CCC1c1nc2c(cnn2C2CCC(F)(F)CC2)c(=O)[nH]1 (racemic) [Example 22] | –
21 | 94 | 1 to 200 | O=c1[nH]c([C@@H]2CC[C@H]2CN2CC(F)(F)C(F)(F)C2)nc2c1cnn2C1CCC(F)(F)CC1 (racemic) [Example 28] | –
22 | – | 201 to 5000 | Cc1ccccc1-n1ncc2c(=O)[nH]c(C3CCC(O)C(O)C3)nc21 (mixture of isomers) [Example 41] | –
23 | 97 | 1 to 200 | COC1(C)CCN(C(=O)[C@H]2CC[C@@H]2c2nc3c(cnn3C3CCC(F)(F)CC3)c(=O)[nH]2)CC1 (racemic) [Example 13] | –
24 | 97 | 1 to 200 | O=C([C@H]1CC[C@@H]1c1nc2c(cnn2C2CCC(F)(F)CC2)c(=O)[nH]1)N1CC(F)(F)C(F)(F)C1 (racemic) [Example 4] | –
25 | 98 | 1 to 200 | CC1(C)CN(C(=O)[C@H]2CC[C@@H]2c2nc3c(cnn3C3CCC(F)(F)CC3)c(=O)[nH]2)CCO1 (racemic) [Example 16] | –
26 | 98 | 1 to 200 | O=c1[nH]c(C2CCC2)nc2c1cnn2C1CCCC1 [Example 29] | –

Row | inhibition at 10 µM ([1]; at 10 micromolar concentration) [%] | IC50 [1, 3] [nM] | SMILES | also measured
27 | 92 | 1 to 200 | O=C([C@H]1CCC[C@@H]1c1nc2c(cnn2C2CCC(F)(F)CC2)c(=O)[nH]1)N1CCC(F)(F)CC1 (racemic) [Example 19] | –
28 | 80 | 201 to 5000 | Cc1ccncc1-n1ncc2c(=O)[nH]c(C3CCC3)nc21 [Example 31] | –
29 | 100 | 1 to 200 | O=C([C@H]1CC[C@@H]1c1nc2c(cnn2C2CCC(F)(F)CC2)c(=O)[nH]1)N1CC[C@@H](F)C1 (racemic) [Example 2] | –
30 | 99 | 1 to 200 | CCN(CC)C(=O)[C@H]1CC[C@@H]1c1nc2c(cnn2C2CCC(F)(F)CC2)c(=O)[nH]1 (racemic) [Example 17] | –
31 | – | 1 to 200 | Cc1ccccc1-n1ncc2c(=O)[nH]c(C3CC3C)nc21 (mixture of isomers) [Example 37] | –
32 | 101 | 1 to 200 | O=C([C@H]1CC[C@@H]1c1nc2c(cnn2C2CCC(F)(F)CC2)c(=O)[nH]1)N1CCC(C(F)(F)F)CC1 (racemic) [Example 6] | –
33 | – | – | CC(=O)Nc1ccc(-c2c[nH]c(=O)cn2)cc1 [SKF94120] | inhibition on the isolated enzyme [2]: no inhibition
34 | 101 | 1 to 200 | O=C([C@H]1CC[C@@H]1c1nc2c(cnn2C2CCCC2)c(=O)[nH]1)N1CCCCC1 (racemic) [Example 24] | –
35 | – | 201 to 5000 | CCC(CC)n1ncc2c(=O)[nH]c(C3CCCC(C(=O)O)C3)nc21 (single isomer, unassigned) [Example 45] | –
36 | – | 201 to 5000 | Cc1ccccc1-n1ncc2c(=O)[nH]c(C3CC3)nc21 [Example 39] | –
37 | – | – | CCOC(=O)C1=C[C@]2(CC)CCCN3CCc4c(n1c1ccccc41)[C@@H]32 [vinpocetine] | inhibition on the isolated enzyme [2]: no inhibition
38 | – | 201 to 5000 | CCOC(=O)C1CCCC(c2nc3c(cnn3C(CC)CC)c(=O)[nH]2)C1 (mixture of isomers) [Example 42] | –
39 | 96 | 1 to 200 | O=C([C@H]1CC[C@@H]1c1nc2c(cnn2C2CCC(F)(F)CC2)c(=O)[nH]1)N1CCCCC1 (racemic) [Example 18] | –
40 | 102 | 1 to 200 | CO[C@@H]1CCN(C(=O)[C@H]2CC[C@@H]2c2nc3c(cnn3C3CCC(F)(F)CC3)c(=O)[nH]2)C1 (racemic) [Example 7] | –
41 | 100 | 1 to 200 | O=C([C@H]1CC[C@@H]1c1nc2c(cnn2C2CCC(F)(F)CC2)c(=O)[nH]1)N1CCC(F)(F)CC1 (racemic) [Example 9] | –
42 | – | – | O=C([C@H]1CC[C@@H]1c1nc2c(cnn2C2CCC(F)(F)CC2)c(=O)[nH]1)N1C[C@H]2CCC[C@H]2C1 (racemic) [Example 8] | IC50 [1]: 1 to 200 nM; inhibition at 10 µM [1]: 100%
43 | – | – | OCCN(CCO)c1nc(N2CCCCC2)c2nc(N(CCO)CCO)nc(N3CCCCC3)c2n1 [dipyridamole] | inhibition on the isolated enzyme [2]: no inhibition
44 | 99 | 1 to 200 | O=C([C@H]1CC[C@@H]1c1nc2c(cnn2C2CCC(F)(F)CC2)c(=O)[nH]1)N1CCCC1 (racemic) [Example 12] | –
45 | 100 | 1 to 200 | O=C([C@H]1CC[C@@H]1c1nc2c(cnn2C2CCC(F)(F)CC2)c(=O)[nH]1)N1CCCC(F)(F)C1 (racemic) [Example 14] | –
46 | 95 | 201 to 5000 | O=C([C@H]1CCC[C@@H]1c1nc2c(cnn2C2CCC(F)(F)CC2)c(=O)[nH]1)N1CCCCC1 (racemic) [Example 25] | –
47 | 100 | 1 to 200 | O=C([C@H]1CC[C@@H]1c1nc2c(cnn2C2CCC(F)(F)CC2)c(=O)[nH]1)N1CCC2(CC2)C1 (racemic) [Example 5] | –
48 | 96 | 1 to 200 | O=c1[nH]c(C2CCC2)nc2c1cnn2C1CCC(F)(F)CC1 [Example 30] | –
49 | 100 | 1 to 200 | O=C([C@H]1CC[C@@H]1c1nc2c(cnn2C2CCC(F)(F)CC2)c(=O)[nH]1)N1CCC(F)(F)C1 (racemic) [Example 3] | –
50 | 89 | 201 to 5000 | O=c1[nH]c([C@@H]2CC[C@H]2Cn2cccn2)nc2c1cnn2C1CCC(F)(F)CC1 (racemic) [Example 47] | –
51 | 57 | 201 to 5000 | O=C([C@@H]1CC[C@@H]1c1nc2c(cnn2C2CCC(F)(F)CC2)c(=O)[nH]1)N1CCCCC1 (racemic) [Example 34] | –
